Consider `CCOP(=O)(COCCOn1cnc2c(N)nc(N)nc21)OCC`, for which the melting point (commonly the temperature of the solid-liquid transition) is 139 to 141 °C.
With `Cn1c(N2CCOC(c3noc(-c4ccccc4)n3)C2)nc(-c2ccncn2)cc1=O` (stereo not given) the figure was 208 °C; with `Cc1c(SCCCN2CCN(Cc3ccncc3)CC2)ccnc1CNc1ncncc1Cl`, 149 to 151 °C; with `CC(C)(C)OC(=O)NCC1(O)CCN(Cc2ccccc2)CC1`, 109 to 112 °C.
With `C=C(c1ccccc1)c1ccc(N)c(N)c1` the figure was 109 to 110 °C; with `c1ccc2c(c1)CCC21CCN(CCCCN2CCC3(CCc4ccccc43)CC2)CC1`, 113 to 115 °C.
With `CC(C)(C)c1cc(CCc2ccccc2NC(=O)N(Cc2ccccc2)C2CCCCCC2)cc(C(C)(C)C)c1O` the figure was 183 to 184 °C; with `COc1ccc2c(c1)c(N1CCN(C)CC1)nn2S(=O)(=O)c1ccccc1`, 165 to 167 °C.
With `C=C(C)C(=O)OCc1c(Br)c(Br)c(Br)c(COC(=O)C(=C)C)c1Br`, the melting point is 97 to 99 °C.
With `CCOc1cc2cc(CO)c(CO)c(-c3ccnc(-n4ccc5ccccc5c4=O)c3)c2cc1OCC` the figure was 131 to 134 °C; with `O=C1CC(=O)c2cc(OCCCOc3ccccc3)ccc21`, 91 to 94 °C.
Turning to `O=C(CC(F)(F)F)N[C@H]1CC[C@H](CCN2CCC(c3cccc4c3CCO4)CC2)CC1`, the melting point is 197 °C.
With `O=C(O)N1C=CC=NC=C1` the figure was 238 to 240 °C; with `CCOC(=O)C(O)c1ccc(-n2cccc2)cc1` (stereo not given), 126 to 128 °C; with `O=C1Nc2ccccc2Sc2nccn21`, 250 to 252 °C.
`CC(=O)OC1CSC(Oc2cncc(-c3c(C)n[nH]c3C)c2)C(OC(C)=O)C1OC(C)=O` (stereo not given) had a melting point of 95 °C.
The compound `CC(=O)c1ccc(NS(C)(=O)=O)c(Oc2ccccc2S(C)=O)c1` (stereo not given) displayed a melting point of 113 to 116 °C.
With `COC(=O)N1C(=O)[C@H](O)[C@@H]1c1ccccc1` the figure was 91 to 92 °C; with `FC(F)(F)c1cc(N2CCN(Cc3n[nH]c4ccccc34)CC2)cc(C(F)(F)F)c1`, 155 to 156 °C; with `O=C(O)C(Cl)(Cl)CCCCCCCCCCCCBr`, 59 to 60 °C.
Then `COc1ccc(C(O)C(=O)c2ccccc2)cc1F` (stereo not given), with 127 to 130 °C.
Then `Cc1ccc(S(=O)(=O)N(c2ccc(Cl)cc2[N+](=O)[O-])C2CC2)cc1`, with 98.5 to 100 °C.
Regarding `CC(=O)NC1(c2ccc(CN3CCN(c4ccc(F)cc4F)CC3)cc2)CC1`, the melting point lay in the range of 124 to 125 °C.
The compound `O=C(O)C1CCN(C(=O)c2ccccc2SSc2ccccc2C(=O)N2CCC(C(=O)O)CC2)CC1` displayed a melting point of over 250 °C.
Then `NC1CCn2c1nc1cc(NC(=O)c3cc4cc(F)ccc4n3Cc3cccc(F)c3)cnc12` (stereo not given), with 218 to 220 °C; and `CCCc1c(OCCCCCc2c(O)c(O)cc(Cl)c2Cl)ccc(C(=O)O)c1O`, with 159 to 164 °C.
Compound `O=C(O)Cc1ccc2c(c1)CCc1cccnc1O2` came in with a melting point of 203 to 204 °C.
With `Cc1ccc(OC(=O)c2cccc(C(=O)Oc3ccc(C)cc3-n3nc4ccccc4n3)c2)c(-n2nc3ccccc3n2)c1` the figure was 115 to 118 °C; with `N#CN1C2CCC1CC(c1n[nH]c3ccccc13)C2` (stereo not given), 201 to 202 °C; with `NC(=S)NN=C(CCCNC(=O)C1CCCCC1)c1ccccc1`, 158 to 159 °C.
Regarding `Cc1nn(C)c(SCc2ccccc2)c1[N+](=O)[O-]`, the melting point is 82 to 83 °C.
As to `COC(=O)CCNc1cccc(CNC(=O)C2Cc3ccccc3N2S(=O)(=O)c2ccc(-c3cccc(C(F)(F)F)c3)cc2)c1` (stereo not given), the melting point was determined as 57 °C.
`C1CCCCCC(=NOC(=NC2CCCCC2)NC2CCCCC2)CCCCC1` gave a melting point of 108 to 111 °C.
`CCOC(=O)c1cc(-n2c(-c3ccccc3)cc3c2CCc2ccccc2-3)ccc1O` displayed a melting point of 134 to 135 °C.
With `CCn1ncc2c1ncc1c(Cl)nc3ncnn3c12` the figure was 196 to 197 °C.
With `CCOC(=O)c1c(CN(C)c2ccccn2)nc2cc(OC)c(OC)cc2c1-c1ccc(OC)c(OC)c1` the figure was 174 to 175 °C; with `FC(F)(F)Oc1ccc2cnn(SC(Cl)(Cl)Cl)c2c1`, 45 °C; with `CCCc1cc2cc(O)c(F)cc2c(Oc2ccc(/C=C/C(=O)O)cc2)c1-c1ccccc1`, 118 to 120 °C.
`Nc1nc(Nc2ccccc2)c2ncn(C3CC(F)C(CO)O3)c2n1` (stereo not given) showed a melting point of 193 to 194 °C.
Then `COc1cc(-c2nc(N)sc2CCC2CCC(C)(C)CC2)c(OC)cc1C`, with 136 to 138 °C; and `O=C(COc1ccccc1)N[C@H]1C(=O)N[C@H]1C(=O)O` (relative stereo), with 150 to 151 °C; and `CC(N1CCC(n2c(=O)[nH]c3ccccc32)CC1)N1Sc2ccccc2C1C(N)=O` (stereo not given), with 174 to 177 °C.
Consider `CSC1=C(c2cccc3sccc23)N2CCN=C2S1`, for which the melting point lay within 104 to 107 °C.
As to `CCOP(=O)(CNC(=O)OC(c1ccccc1)c1cc(C(C)(C)C)c(O)c(C(C)(C)C)c1)OCC` (stereo not given), the melting point was 196 to 197 °C.
`CCCCCCCCCCCCCCCCCCOc1cc(OCc2ccccc2)cc(C(=O)OC)c1` yielded a melting point of 62 to 64 °C.
With `O=C(O)c1sc(C(c2ccc(Cl)cc2)c2c(Cl)cc(-n3ncc(=O)[nH]c3=O)cc2Cl)nc1-c1ccccc1` (stereo not given) the figure was 206 °C.
With `O=C1NC(=O)N2C(c3ccccc3)SC[C@@H]12` (stereo not given in full) the figure was 177 to 179 °C.
`CC(C)(C)OC(=O)CC(Cc1ccccc1)NC(=O)C1Cc2ccccc2N1S(=O)(=O)c1ccc(-c2ccc(F)cc2)cc1` (stereo not given) gave a melting point of 67 to 73 °C.
Consider `CC(C)CC(=O)Oc1ccc2cc(C(=N)N)ccc2c1`, for which the melting point fell in the range of 250 to 252 °C.
With `O=C(O)Cn1c(=O)c(=O)[nH]c2cc([N+](=O)[O-])c(-n3ccc(CN4CCCCC4)c3)cc21` the figure was over 250 °C.
With `Cc1c(CO)ncnc1N1CCCC1` the figure was 112 to 114 °C.
With `COC(=O)c1cn(-c2ccc3ccccc3c2)cn1` the figure was 143 to 144 °C.
The compound `COc1ccc(CC(NC(=O)OCc2ccccc2)C(=O)C=[N+]=[N-])cc1` (stereo not given) returned a melting point of 88 to 90 °C.
`COc1cccc(CC(=O)O)c1OCCn1cc(C(=O)NCc2ccc(Cl)cc2Cl)c(OC(C)C)n1`: the melting point lay in the range of 154 to 155 °C.
With `Cc1c(CC(C)(C)C(=O)O)n(Cc2ccc(Cl)cc2)c2ccc(OCc3cccc(-c4ccccc4)n3)cc12` the figure was 137 to 139 °C; with `COc1cc(-c2ccncc2)n[nH]1`, 140 °C.
Then `Cc1oc(-c2ccccc2)nc1CCc1ccc(/C=C/C=C/C=O)cc1`, with 107 to 108 °C; and `Cc1cc(C)nc(Sc2ccnc3cc(Cl)cc(Cl)c23)n1`, with 182 to 183 °C.
Compound `COc1ccc2nc(C3(OC)C=CC(=NS(=O)(=O)c4ccc(C)cc4)C=C3)sc2c1` (stereo not given) displayed a melting point of 166 to 168 °C.
With `CCOC(=O)c1cc(=O)c2c(OCC(O)COc3ccc(C#N)c(OC)c3)cccc2o1` (stereo not given) the figure was 143 to 145 °C.
Then `CCn1c(=O)c2c(nc(/C=C/c3ccc(OC)c(C)c3)n2C)n(CC)c1=O`, with 176 to 178 °C; and `O=C(/C=C/c1ccc(S(=O)(=O)N2CCN(c3ccccc3F)CC2)cc1)NO`, with 196 to 197 °C; and `O=[N+]([O-])c1ccc(N=Nc2ccc(O)c(CO)c2)cc1`, with 178 to 179 °C.
Turning to `CC(C)(C)c1ccc(-c2nc(NC(=O)c3cccnc3)sc2-c2ccncc2)cc1`, the melting point is 326 to 328 °C.
Then `O=C1CC(NC(=O)C2CCCN3C(=O)CCC(NC(=O)c4ccccc4)C(=O)N23)C(OCCc2ccccc2)O1` (stereo not given), with 101 °C; and `COc1cc(CC(=O)NCCCc2ccc(C)c(C)c2)ccc1OCCN1CCNCC1`, with 92 to 94 °C; and `CCOC(=O)c1c(Nc2c(C)cccc2C)n[nH]c1C`, with 131 to 137 °C.
Then `COC(=O)C=CC=CCS(=O)(=O)c1ccccc1`, with 105 °C; and `CC1CC=CCN1Cc1ccc(O)cc1` (stereo not given), with 109 to 112 °C.
Then `N#CCCN1CCN(Cc2ccc3c(c2)-c2[nH]nc(-c4ccsc4)c2C3)CC1`, with 156 to 157 °C.
In turn, `CC(C)NC(Nc1cc(C(F)(F)F)cc(C(F)(F)F)c1)=C(C#N)S(=O)(=O)c1ccc(Cl)cc1` showed a melting point of 197 to 198 °C.
With `NS(=O)(=O)c1ccc(NC(=O)CCl)cc1Cl` the figure was 214 to 216 °C; with `CCOC(=O)c1c(C)n(C(=O)c2ccccc2)c2ccc(Oc3nc(OC)cc(OC)n3)c(C(=O)OCc3ccccc3)c12`, 128 to 132 °C.
With `CNCc1noc(-c2cc(C(C)(C)C)c(O)c(C(C)(C)C)c2)n1` the figure was 120 to 122 °C; with `CCOC(=O)c1ccc(Cl)nc1NCc1ccc(OC)c(Cl)c1`, 108 to 112 °C; with `Cn1c2ccc(Cl)cc2c2c3ccccc3c(OCC3CC3)nc21`, 141 to 142 °C.
Then `COc1ccc(-c2ccc3c(c2)CC[C@H]2N(C)C(=O)CC[C@]32C)cc1OC`, with 108 to 112 °C; and `O=C(O)CC1Sc2ccc([N+](=O)[O-])cc2CN(CCc2ccccc2)C1=O` (stereo not given), with 210 to 214 °C.
In turn, `CC(C)c1cc(C(C)C)c(SSc2c(C(C)C)cc(C(C)C)cc2C(C)C)c(C(C)C)c1` gave a melting point of 93 to 94 °C.
`CC(C)C(=O)N1CCC(C(CS(=O)(=O)c2ccc(Oc3ccc(OC(F)(F)F)cc3)cc2)N(O)C=O)CC1` (stereo not given): the melting point lay within 139 to 140 °C.
Then `CC#CCOc1ccc([S@](=O)[C@@H](CCCCCC)C(=O)O)cc1`, with 112 °C; and `COc1cc(C)c(C(=O)c2c(C)cccc2OC)c(OC)c1OC`, with 84 °C; and `C[C@@H](Nc1ncnc2[nH]c(-c3ccc(CN)cc3)cc12)c1ccccc1`, with 253 to 256 °C.
Consider `C[C@H]1CCCC(C)(C)[C@@H]1[C@H](O)c1ccc(C#N)c(Cl)c1`, for which the melting point lay within 116 to 118 °C.
With `COCC1CN(C(=O)c2cc(OC)c(OC)c(OC)c2)CCN1C(=O)OC(C)(C)C` (stereo not given) the figure was 127 °C.

Source of the values: a melting point compilation (Tetko et al.; mined from patent text by program, amines drawn as free bases though some values may be those of a salt).
